Laboratory results reported in publication PMC5654082 (Malaria Journal, 2017).
Where a name gives a salt, the structure may show the parent alone.

Target: T1, human OCT1 (Homo sapiens, UniProt O15245)
T1 construct: host or cells: HEK293, baculovirus transduction (CMV promoter), transient
T1 sequence (O15245 1-554): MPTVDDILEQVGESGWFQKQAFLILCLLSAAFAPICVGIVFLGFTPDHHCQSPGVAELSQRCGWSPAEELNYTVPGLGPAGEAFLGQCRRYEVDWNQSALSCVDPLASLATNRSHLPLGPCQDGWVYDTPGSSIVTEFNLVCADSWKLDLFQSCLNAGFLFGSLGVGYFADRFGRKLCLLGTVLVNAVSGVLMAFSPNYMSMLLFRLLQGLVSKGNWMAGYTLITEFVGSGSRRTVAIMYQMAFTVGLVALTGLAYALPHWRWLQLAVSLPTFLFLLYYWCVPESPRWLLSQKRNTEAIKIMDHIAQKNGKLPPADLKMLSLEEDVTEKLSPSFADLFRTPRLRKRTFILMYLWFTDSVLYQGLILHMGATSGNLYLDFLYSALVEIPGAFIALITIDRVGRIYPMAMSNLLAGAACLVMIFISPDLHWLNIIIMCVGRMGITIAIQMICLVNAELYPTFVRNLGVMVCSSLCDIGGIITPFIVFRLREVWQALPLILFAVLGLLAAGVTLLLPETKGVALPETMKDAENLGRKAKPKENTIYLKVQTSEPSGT
Assay: OCT1-mediated cellular import in transduced HEK293 cells (LC-MS/MS)
Assay type: cell-based
Method: HEK293 cells were modified to transiently express (a combination of) human OCT1, OCT2, MATE1, MATE2-K, or eYFP. Briefly, cDNA of the respective genes was cloned downstream of a CMV promoter into a baculovirus, of which passage three was used to transduce HEK293 cells. These cells were seeded in poly-D-lysine coated 24- or 96-wells plates and grown in a 37 °C incubator at 5% CO2. Growth was initiated at ~ 25% confluency using 375 or 125 μL cell and complete medium (DMEM + GlutaMAX™-I supplemented with 10% fetal bovine serum) suspension per well, respectively. After 24 h, cells were transduced with 30 µL virus (10 µL virus + 20 µL complete medium in case of 96-wells plates) or 2 × 15 µL virus for cells that required simultaneous expression of two transporters. Finally, 195 µL sodium butyrate (45 µL for 96-wells plates) was added to a final concentration of 2 mM to enhance protein expression.
HEK293 cells were seeded in 24-wells poly-D-lysine coated plates and transduced the subsequent day with OCT1 or OCT2 as described above. Three days following transduction, OCT1- or OCT2-mediated uptake of ten anti-malarials (AMO, ART, ATO, CQ, DHA, LUM, MQ, PQ, PG, and QN) was performed. NMQ served as a positive substrate for both OCT1 and OCT2 import. In short, cells were washed with 400 µL 37 °C HBSS-HEPES buffer followed by adding 150 µL HBSS buffer with 10 µM anti-malarial or NMQ to each well. After incubation for 15 min at 37 °C, import was stopped by washing with 400 µL ice-cold HBSS-HEPES buffer supplemented with 0.5% BSA. Following a second wash with 400 µL ice-cold HBSS-HEPES buffer, cells were lysed with 200 µL 50% (v/v) MeOH and 0.1% (v/v) formic acid (HCOOH) in water and samples were sent for quantification by mass spectrometry analysis (see “LC–MS/MS quantification of anti-malarials” section). […]
The affinity (KM) and maximum transport rate (Vmax) for OCT1 and OCT2 of PG were determined by analysing concentration-dependent uptake data from three independent experiments.
Import and export of PG and cycloguanil (CG) was assessed by single and double transduced HEK293 cells. […] Following the same procedure as for the cellular import assay described above, the import of 100 µM PG and CG was measured after 5 min incubation and data was plotted as mean pmol/mg/min ± SEM. […] Significant reduction in uptake (i.e. export by MATEs) was determined using ln transformation and a one-way repeated measures ANOVA with Dunnet’s post test.
Anti-malarial concentration in the cell lysates was quantified using an LC–MS/MS system consisting of a UPLC, a binary solvent manager, a vacuum degasser and an autosampler, coupled to a Xevo TQ-S micro triple quadrupole mass spectrometer. […]

## CC1(C)N=C(N)N=C(N)N1c1ccc(Cl)cc1 [Cycloguanil]
100 µM, 5 min
  Uptake by OCT1: 139 ± 9 pmol/mg/min

## [H]/N=C(\N/C(=N/[H])Nc1ccc(Cl)cc1)NC(C)C [Proguanil, proguanil hydrochloride]
10 µM, 15 min, 37 °C
  Uptake by OCT1, percentage of mock-transduced control: 301 ± 25%
Cells co-transduced with eYFP and OCT1, 1 µM, 1 min, pH 7.4
  Uptake, percentage of eYFP control cells: 850 ± 60%
